Measurements: patent US11567074B2, “Methods for identifying proteins that bind ligands” (University of Pittsburgh—Of the Commonwealth System of …, priority 2016, dated 2023)
Several values for one entry are separate records, joined by “and”; a condition that tells them apart may be missing. Identical values can stand only once. Entries after “also recorded” stand apart in the source; their conditions may differ.

Experiments:
[1] = test system: tumor cells including cisplatin resistant ovarian cancers cells; conditions: wide range of tumor cells incl. cisplatin resistant ovarian cancer cells; cited from earlier work
[2] = target: T1, dipeptidyl peptidase 3 (DPP3) (Homo sapiens, UniProt Q9NY33); experiment: DISRUPT label-free differential mass spectrometry, a2780cis lysate; assay type: binding; conditions: 20 μM mdivi-1, a2780cis lysate, 56° C. for ten minutes, n=6 per condition
T1 construct: endogenous in cells; host or cells: a2780cis cells (Sigma Aldrich), cleared freeze-thaw lysate
T1 sequence (Q9NY33 1-737): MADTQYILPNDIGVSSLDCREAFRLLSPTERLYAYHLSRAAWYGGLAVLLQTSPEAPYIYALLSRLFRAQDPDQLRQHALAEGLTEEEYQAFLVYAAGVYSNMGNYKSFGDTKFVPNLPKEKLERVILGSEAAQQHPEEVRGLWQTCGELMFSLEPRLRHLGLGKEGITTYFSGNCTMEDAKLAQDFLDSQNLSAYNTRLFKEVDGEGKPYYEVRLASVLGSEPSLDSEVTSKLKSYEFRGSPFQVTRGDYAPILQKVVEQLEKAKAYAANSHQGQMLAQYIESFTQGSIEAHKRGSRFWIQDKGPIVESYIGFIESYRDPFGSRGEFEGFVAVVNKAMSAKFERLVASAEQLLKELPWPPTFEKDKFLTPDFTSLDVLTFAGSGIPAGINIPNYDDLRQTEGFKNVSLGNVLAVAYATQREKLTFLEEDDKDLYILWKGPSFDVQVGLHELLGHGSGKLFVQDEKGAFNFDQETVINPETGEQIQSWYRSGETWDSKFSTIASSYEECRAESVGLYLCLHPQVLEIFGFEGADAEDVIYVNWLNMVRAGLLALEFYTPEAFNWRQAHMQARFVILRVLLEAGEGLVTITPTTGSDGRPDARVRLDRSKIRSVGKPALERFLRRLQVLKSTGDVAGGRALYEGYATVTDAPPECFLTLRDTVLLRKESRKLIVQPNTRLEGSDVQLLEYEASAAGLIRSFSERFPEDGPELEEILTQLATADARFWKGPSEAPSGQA
Method: Equal aliquots of a2780cis cells were treated with 20 μM mdivi-1 and DMSO respectively, split into six technical replicates per condition, and heated to 56° C. for ten minutes to stimulate differential agglutination of drug-bound and unbound proteins. […] Data-dependent MS/MS data was analyzed and results in the identification of 35,369 features linked to 5488 unique peptides sequences that were associated with 947 proteins. Features […] having non-zero intensity values in at least four of six samples per condition were selected, and a Student's t-test was applied to compute a p value for each feature, and a volcano plot was created to show the distribution of features as a function of fold change and significance, as shown in the volcano plot in FIG. 7A. Two of the significant features were identified as peptide […] (SEQ ID NO: 2) deriving from dipeptidyl peptidase 3, DPP3, using MS/MS spectra acquired during the initial dMS experiment. The 6 remaining highly significant features were identified as peptides […] (SEQ ID NO: 6), […] (SEQ ID NO: 4), and […] (SEQ ID NO: 1) that are specific to the protein sequence for DPP3, using MS/MS spectra acquired in subsequent analyses.
(§1) The lysate stock was placed on ice until thawed.
Samples were denatured and digested utilizing the FASP method described by Wisniewski et al. (2009) and Manza et al. (2005). […]

β-actin = target: T2, β-actin (Homo sapiens, UniProt P60709); experiment: Western blot thermal shift (CETSA) in a2780cis lysate, β-actin control; assay type: binding; conditions: 20 μM mdivi-1, a2780cis cytoplasmic lysate, control protein
T2 construct: Lysates of A2780cis cells were prepared identically as DISRUPT experiments outlined above; endogenous in cells; host or cells: a2780cis cells, cleared lysate
Method: (§2) Protein quantification by western blot was employed to confirm the relative abundance of DPP3 remaining in solution following treatment with mdivi-1, heating and centrifugation. Cytoplasmic lysates from a2780cis ovarian cancer cells were treated with 20 μM mdivi-1 of and heated to 44° C., 48° C., 52° C., 56° C., and 60° C., in singlicate; the western blot is shown in FIG. 9D. β-actin was used as a control blot to show an unchanging […] intensity as a function of temperature. […] DPP3 activity was measured using a polypeptide cleavage assay that measures a decrease in fluorescence due to the removal of an n-terminal bound fluorophore. Fluorescence was measured as a function of dose, as shown in FIG. 9E; the control and quench assays for the functional assay are shown in FIG. 9D.
as §1
(§3) Lysates of A2780cis cells were prepared identically as DISRUPT experiments outlined above. The soluble protein was separated on Tris-glycine gels (Invitrogen). The separated proteins were blotted onto a polyvinylidene difluoride (PVDF) membrane and non-specific binding was blocked overnight at 4° C. in phosphate-buffered saline containing 0.1% Tween 20 and 10% nonfat dry milk (blocking buffer). Membranes were incubated with primary antibodies, DPP3 (GeneTex), Drpl (BD Biosciences), and β-actin (Sigma-Aldrich), in blocking buffer overnight at 4° C. […]

DPP3 [3] = target: T3, DPP3 (Homo sapiens, UniProt Q9NY33); experiment: DPP3 activity assay (fluorogenic polypeptide cleavage); assay type: biochemical; set-up: purchased BPS Bioscience 80203; conditions: IC50 upon DPP3 activity, purified recombinant DPP3, substrate Arg2-AMC, fluorescence as a function of dose
T3 sequence (Q9NY33 1-737): T1 sequence (Q9NY33 1-737)
Method: as §2
The inhibition of DPP3 peptidase activity by mdivi-1 was evaluated using a commercially available fluorogenic DPP3 Assay Kit (catalog number 80203, BPS Bioscience, San Diego Calif.) that contains purified recombinant DPP3 protein and DPP3 substrate Arg2-AMC. The fluorescence intensity was measured using a microplate reader, Synergy 2 (BioTek instruments).

DRP1 = target: T4, DRP1 (Homo sapiens, UniProt O00429); experiment: Western blot thermal shift (CETSA) in a2780cis lysate, DRP1; assay type: binding; conditions: 20 μM mdivi-1, a2780cis cytoplasmic lysate, 44-60° C., vs vehicle
T4 construct: Lysates of A2780cis cells were prepared identically as DISRUPT experiments outlined above; endogenous in cells; host or cells: a2780cis cells, cleared lysate
Method: as §2, §1, §3

DPP3 [4] = target: T3, DPP3; experiment: Western blot thermal shift (CETSA) in a2780cis lysate, DPP3; assay type: binding; set-up: endogenous in cells; host or cells: a2780cis cells (Sigma Aldrich), cleared freeze-thaw lysate; conditions: 20 μM mdivi-1, a2780cis cytoplasmic lysate, 44-60° C., vs vehicle
Method: as §2, §1, §3

[5] = target: T5, Huntingtin-interacting protein K, HYPK (Homo sapiens, UniProt Q9NX55); experiment: DISRUPT label-free differential mass spectrometry, K562 lysate, HYPK; assay type: binding; conditions: 2 μM staurosporine, 56° C. for ten minutes, n=10 per condition
T5 construct: endogenous in cells; host or cells: K562 cells (ATCC), cleared lysate in kinase buffer
T5 sequence (Q9NX55 1-121): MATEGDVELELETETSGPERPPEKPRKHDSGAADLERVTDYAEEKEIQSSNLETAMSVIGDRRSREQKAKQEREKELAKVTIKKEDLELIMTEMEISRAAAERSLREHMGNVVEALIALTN
Method: Samples were heated to 56° C. for ten minutes to stimulate protein agglutination (protein clumping) and agglutinated proteins were removed from solution by centrifugation at 20,000 g.
To measure the relative abundance of proteins in solution, lysates were subjected to tryptic digestion, desalting and quantitative proteomic analysis. Peptide samples were separated by reversed phase C18 nanoflow liquid chromatography (nLC), ionized by electrospray ionization, and analyzed with a hybrid ion trap/high-resolution Fourier transform mass spectrometer. […] To enhance the quantification of the vast number of molecular features present in high-resolution data, the acquisition of full-scan MS spectra were prioritized over the collection of MS/MS spectra that are used for peptide identification, resulting in approximately 10 quantitative measurements per chromatographic peak.
Samples were analyzed in a balanced run order to compensate for drifts in mass spectrometry response that occurs as a function of time. Each sample was analyzed once and the resulting data file was uploaded to a cloud-based data analysis platform, CHORUS (www.chorusproject.org), that was developed to support the efficient analysis of high-resolution mass spectrometry data. Label-free differential mass spectrometry (dMS) was used to quantify hundreds of thousands of features detected by nLC-MS analysis. […]

T4 sequence (O00429 whole entry): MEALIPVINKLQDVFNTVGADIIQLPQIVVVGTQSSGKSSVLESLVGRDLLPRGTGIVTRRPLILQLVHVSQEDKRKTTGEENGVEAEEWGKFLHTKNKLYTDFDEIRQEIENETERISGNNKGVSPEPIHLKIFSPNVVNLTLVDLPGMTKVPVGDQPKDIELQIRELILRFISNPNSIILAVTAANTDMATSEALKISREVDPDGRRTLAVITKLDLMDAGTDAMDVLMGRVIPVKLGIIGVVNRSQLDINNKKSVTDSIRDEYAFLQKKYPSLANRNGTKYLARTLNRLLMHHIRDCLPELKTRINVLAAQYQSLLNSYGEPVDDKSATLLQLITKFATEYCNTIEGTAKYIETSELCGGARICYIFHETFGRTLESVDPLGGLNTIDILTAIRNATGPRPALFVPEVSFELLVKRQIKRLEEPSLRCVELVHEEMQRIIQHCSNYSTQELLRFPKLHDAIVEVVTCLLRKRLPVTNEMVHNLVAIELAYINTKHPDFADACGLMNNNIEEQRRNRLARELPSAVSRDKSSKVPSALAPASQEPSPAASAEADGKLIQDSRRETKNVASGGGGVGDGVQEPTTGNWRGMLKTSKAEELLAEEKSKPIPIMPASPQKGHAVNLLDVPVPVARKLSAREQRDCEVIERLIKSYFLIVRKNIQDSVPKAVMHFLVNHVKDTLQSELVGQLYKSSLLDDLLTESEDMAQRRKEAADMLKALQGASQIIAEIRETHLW

SMILES | killing of tumor cells [1] | DISRUPT ranking / significant features of DPP3 [2] | thermal shift of β-actin (western blot) (β-actin) | IC50 (DPP3 [3]) | thermal shift of DRP1 (western blot) (DRP1) | thermal shift of DPP3 (protein remaining in solution, western blot) (DPP3 [4]) | peptides identified among the 15 highly significant features (p<0.0001), HYPK [5]
COc1cc(-n2c(S)nc3ccccc3c2=O)c(Cl)cc1Cl [mdivi-1] | robust killing | eight DPP3 peptides from 18 features were significant; also recorded: top putative target | no shifts were observed | ~70 nM and 70 nM | no evidence of a thermal shift; also recorded: no shifts were observed | remained in solution at 52 °C and 56 °C at higher levels compared to vehicle treated controls; also recorded: a strong shift was seen for DPP3 | 
CN[C@@H]1C[C@H]2O[C@@](C)([C@@H]1OC)n1c3ccccc3c3c4c(c5c6ccccc6n2c5c31)C(=O)NC4 [staurosporine] |  |  |  |  |  |  | one peptide
